Values of other authors in patent publication US20130331402A1, “DOSING REGIMEN ASSOCIATED WITH LONG-ACTING INJECTABLE PALIPERIDONE ESTERS” (Janssen Pharmaceutica NV, priority 2009, published 2013).

settings: depot intramuscular antipsychotics

First: CCCCCCCCCC(=O)OC1(c2ccc(Cl)cc2)CCN(CCCC(=O)c2ccc(F)cc2)CC1 [Haloperidol decanoate]
Second: CCCCCCCCCC(=O)OCCN1CCN(CC/C=C2\c3ccccc3Sc3ccc(Cl)cc32)CC1 [Clopenthixol decanoate]
The “t1/2 (apparent terminal half-life after multiple dosing)” value of the first is higher: 21 days for the first, 19 days for the second.

Going from CCCCCCCCCC(=O)OCCN1CCN(CCCN2c3ccccc3Sc3ccc(C(F)(F)F)cc32)CC1 [Fluphenazine decanoate] to CCCCCCC(=O)OCCN1CCN(CCCN2c3ccccc3Sc3ccc(C(F)(F)F)cc32)CC1 [Fluphenazine enanthate], the “t1/2 (apparent terminal half-life after multiple dosing)” value falls from 14 days to 4 days.

Compared with CCCCCCCCCCCCCCCC(=O)OCCC1CCN(CCCN2c3ccccc3Sc3ccc(S(=O)(=O)N(C)C)cc32)CC1 [Pipothiazine palmitate], CCCCCCC(=O)OCCN1CCN(CCCN2c3ccccc3Sc3ccc(Cl)cc32)CC1 [Perphenazine enanthate] is lower in “t1/2 (apparent terminal half-life after multiple dosing)” value: 15 to 16 days for the first, 4 to 6 days for the second.

Compared with CCCCCCCCCC(=O)OCCN1CCN(CC/C=C2\c3ccccc3Sc3ccc(C(F)(F)F)cc32)CC1 [Flupenthixol decanoate], CCCCCCCCCC(=O)OCCN1CCN(CC/C=C2/c3ccccc3Sc3ccc(Cl)cc32)CC1 [Zuclopenthixol decanoate] is higher in “t1/2 (apparent terminal half-life after multiple dosing)” value: 17 days for the first, 19 days for the second.

Compared with Cc1cc2c(s1)Nc1ccccc1N=C2N1CCN(C)CC1.O.O=C(O)c1cc2ccccc2c(Cc2c(O)c(C(=O)O)cc3ccccc23)c1O [Olanzapine pamoate], O=C1NCN(c2ccccc2)C12CCN(CCCC(c1ccc(F)cc1)c1ccc(F)cc1)CC2 [Fluspirilene] is lower in “t1/2 (apparent terminal half-life after multiple dosing)” value: 30 days for the first, 7 days for the second.

settings: oral atypical antipsychotics, Table 2

Compared with OCCOCCN1CCN(C2=Nc3ccccc3Sc3ccccc32)CC1 [Quetiapine], CN1CCN(C2=Nc3cc(Cl)ccc3Nc3ccccc32)CC1 [Clozapine] is higher in “Terminal Half-life” value: 6 h for the first, 9 to 17 h for the second.

Compared with CCN1CCCC1CNC(=O)c1cc(S(=O)(=O)CC)c(N)cc1OC (stereo not drawn) [Amisulpride], Cc1nc2n(c(=O)c1CCN1CCC(c3noc4cc(F)ccc34)CC1)CCCC2O (stereo not drawn) [Paliperidone (9-hydroxy-risperidone), Paliperidone] is 2.1-fold higher in “Terminal Half-life” value: 12 h for the first, 25 h for the second.

First: O=C1Cc2cc(CCN3CCN(c4nsc5ccccc45)CC3)c(Cl)cc2N1 [Ziprasidone]
Second: O=C1CCc2ccc(OCCCCN3CCN(c4cccc(Cl)c4Cl)CC3)cc2N1 [Aripiprazole]
The “Terminal Half-life” value of the first is lower: 8 to 10 h for the first, 47 to 68 h for the second.

In the case of O=C1NCCN1CCN1CCC(c2cn(-c3ccc(F)cc3)c3ccc(Cl)cc23)CC1 [Sertindole], the “Terminal Half-life” value is given as 70 h.

same assay, conditions: oral typical antipsychotics, Table 1

First: CSc1ccc2c(c1)N(CCC1CCCCN1C)c1ccccc1S2 (stereo not drawn) [Thioridazine]
Second: CN1CCN(CCCN2c3ccccc3Sc3ccc(Cl)cc32)CC1 [Prochlorperazine]
The “Terminal Half-life” value of the first is higher: 9 to 30 h for the first, 4 to 8 h for the second.

OCCN1CCN(CCCN2c3ccccc3Sc3ccc(C(F)(F)F)cc32)CC1 [Fluphenazine] and CN1CCN(CCCN2c3ccccc3Sc3ccc(C(F)(F)F)cc32)CC1 [Trifluoperazine] cannot be ordered by “Terminal Half-life” value: 14 to 24 h for the first, 10 to 20 h for the second.

OCCN1CCN(CC/C=C2/c3ccccc3Sc3ccc(C(F)(F)F)cc32)CC1 [Flupenthixol] and CN1CCN(CC/C=C2/c3ccccc3Sc3ccc(S(=O)(=O)N(C)C)cc32)CC1 [Thiothixene] cannot be ordered by “Terminal Half-life” value: 22 to 36 h for the first, 34 h for the second.

First: CN1CCN(C2=Nc3ccccc3Oc3ccc(Cl)cc32)CC1 [Loxapine]
Second: OCCN1CCN(CCCN2c3ccccc3Sc3ccc(Cl)cc32)CC1 [Perphenazine]
The “Terminal Half-life” value of the first is lower: 4 h for the first, 8 to 21 h for the second.

Compared with CCc1c(C)[nH]c2c1C(=O)C(CN1CCOCC1)CC2 (stereo not drawn) [Molindone], O=c1[nH]c2ccccc2n1C1CCN(CCCC(c2ccc(F)cc2)c2ccc(F)cc2)CC1 [Pimozide] is higher in “Terminal Half-life” value: 1.5 h for the first, 48 to 72 h for the second.

CN(C)CCCN1c2ccccc2Sc2ccc(Cl)cc21 [Chlorpromazine] and O=C(CCCN1CCC(O)(c2ccc(Cl)cc2)CC1)c1ccc(F)cc1 [Haloperidol] cannot be ordered by “Terminal Half-life” value: 8 to 35 h for the first, 12 to 36 h for the second.

settings: background statement

In the case of CCCCCCCCCCCCCCCC(=O)OC1CCCn2c1nc(C)c(CCN1CCC(c3noc4cc(F)ccc34)CC1)c2=O (racemic) [paliperidone palmitate, (±)-3-[2-[4-(6-fluoro-1,2-benzisoxazol-3-yl)-1-piperidinyl]ethyl]-6,7,8,9-tetrahydro-2-methyl-4-oxo-4H-pyrido[1,2-c]pyrimidin-9-yl hexadecanoate], the water solubility is given as “extreme low water solubility”.
